In patent US4880809A, “1,4-disubstituted piperazines (or homopiperazines) as platelet-activating factor antagonists” (Takeda Chemical Industries, Ltd., priority 1987, dated 1989):
Counter-ions that a name gives are not always drawn.

What was measured:
[1] = system: PAF-Induced Platelet Aggregation; assay: Inhibitory Action on PAF-Induced Platelet Aggregation; format: cell-based, New Zealand white male rabbits; conditions: Oryctolagus cuniculus, Drug Concentration: 3 × 10^-5 M, rabbit PRP
Procedure: Blood was collected from the hearts of conscious New Zealand white male rabbits weighing 2 to 3 kg using citric acid as an anticoagulant (one volume part of 3.15% citric acid per 9 volume parts of the whole blood). The blood was subjected to a centrifuge at 800 rpm for ten minutes to obtain platelet rich plasma (PRP). The remaining blood after collecting the PRP was subjected to a centrifuge at 3000 rpm for ten minutes to obtain platelet poor plasma (PPP). PRP was diluted with PPP, and the number of platelets was adjusted to 500,000/μl. Platelet aggregation was examined by means of turbidimetry [Born, Nature, 194, 927-929 (1962)] with 8 channel aggregometer (NBS HEMA TRACER 6 Nikoh, Bioscience, Japan). More concretely, PRP (250 μl) was kept warm (37° C.) for three minutes in a silicon-processed cuvette, to which was added a test sample (25 μl) dissolved in a physiological saline or in 10mM dimethylsulfoxide followed by dilution with a physiological saline. Two minutes later, PAF (25 μl, 3×10^-9 -1×10^-8 M), dissolved in a physiological saline, was added and then the maximum aggregation rate was determined. As the control, physiological saline without test sample was added to the cuvette, and the inhibitory rate thereon was determined.

[2] = system: PAF-Induced Hypotension; assay: Inhibitory Action on PAF-Induced Hypotension; format: in vivo, SD (Jcl) male rats; conditions: po, 30 mg/kg p.o., rat
Procedure: SD (Jcl) male rats of 6 to 8 week old were subjected to the experiment. After fasting overnight, the rats were cannulated into the femoral artery and vein under anesthesia with pentobarbital. A transducer (MPU-0.5-290O-III, TOYO BALDWIN, Japan) was connected with the artery cannula, and blood pressure was continuously measured. […] The rate of inhibition of lowering of blood pressure after administration of the test samples against the control was evaluated.

CCCOc1cc2c(cc1OCCC)CCC(C(=O)N1CCN(C(=O)c3cc(OC)c(OC)c(OC)c3)CC1)=C2 [Example 66, 1-(6,7-dipropoxy-1,2-dihydro-3-naphthoyl)-4-(3,4,5-trimethoxybenzoyl)piperazine]
inhibition at 30 µM [1]: 100% | inhibition in vivo at 30 mg/kg ([2]; after 1 hr): 77% | inhibition in vivo at 30 mg/kg ([2]; after 2 hrs): 79% | inhibition in vivo at 30 mg/kg ([2]; after 4 hrs): 68%

COc1cc2c(cc1OC)CCCCC(C(=O)N1CCN(C(=O)c3cc(OC)c(OC)c(OC)c3)CC1)=C2 [Example 85, 1-(2,3-dimethoxy-5,6,7,8-tetrahydrobenzocycloocten-9-ylcarbonyl)-4-(3,4,5-trimethoxybenzoyl)piperazine]
inhibition at 30 µM [1]: 100% | inhibition in vivo at 30 mg/kg ([2]; after 1 hr): 100% | inhibition in vivo at 30 mg/kg ([2]; after 2 hrs): 100% | inhibition in vivo at 30 mg/kg ([2]; after 4 hrs): 100%

COc1cc2c(cc1OC)CCC(C(=O)N1CCN(Cc3cc(OC)c(OC)c(OC)c3)CC1)=C2 [Example 5, 1-(6,7-dimethoxy-1,2-dihydro-3-naphthoyl)-4-(3,4,5-trimethoxybenzyl)piperazine hydrochloride]
inhibition at 30 µM [1]: 100% | inhibition in vivo at 30 mg/kg ([2]; after 1 hr): 77% | inhibition in vivo at 30 mg/kg ([2]; after 2 hrs): 75% | inhibition in vivo at 30 mg/kg ([2]; after 4 hrs): 49%

CCCOc1cc2c(cc1OCCC)CCC(C(=O)N1CCN(Cc3cc(OC)c(OC)c(OC)c3)CC1)=C2 [Example 60, 1-(6,7-dipropoxy-1,2-dihydro-3-naphthoyl)-4-(3,4,5-trimethoxybenzyl)-piperazine hydrochloride]
inhibition at 30 µM [1]: 100% | inhibition in vivo at 30 mg/kg ([2]; after 1 hr): 79% | inhibition in vivo at 30 mg/kg ([2]; after 2 hrs): 69% | inhibition in vivo at 30 mg/kg ([2]; after 4 hrs): 60%

COc1cc2c(cc1OC)CCCC(C(=O)N1CCN(Cc3cc(OC)c(OC)c(OC)c3)CC1)=C2 [Example 49, 1-(2,3-dimethoxy-6,7-dihydro-5H-benzocyclohepten-8-ylcarbonyl)-4-(3,4,5-trimethoxybenzyl)piperazine hydrochloride]
inhibition at 30 µM [1]: 100% | inhibition in vivo at 30 mg/kg ([2]; after 1 hr): 94% | inhibition in vivo at 30 mg/kg ([2]; after 2 hrs): 97% | inhibition in vivo at 30 mg/kg ([2]; after 4 hrs): 88%

CCOc1cc2c(cc1OCC)CCC(C(=O)N1CCN(C(=O)c3cc(OC)c(OC)c(OC)c3)CC1)=C2 [Example 65, 1-(6,7-diethoxy-1,2-dihydro-3-naphthoyl)-4-(3,4,5-trimethoxybenzoyl)piperazine]
inhibition at 30 µM [1]: 100% | inhibition in vivo at 30 mg/kg ([2]; after 1 hr): 100% | inhibition in vivo at 30 mg/kg ([2]; after 2 hrs): 100% | inhibition in vivo at 30 mg/kg ([2]; after 4 hrs): 77%
